Article PMC7290497, “Tubulin Resists Degradation by Cereblon-Recruiting PROTACs” (Cells, 2020)
“Also recorded” adds a separate entry of the source. Where two headings read alike, the source gives them in different places. Square brackets hold non-standard residues; d marks the D form. Peptide text beside a SMILES is read from it. * marks the point of attachment. Dolaproine = CO[C@@H]([C@@H]1CCCN1)[C@@H](C)C(=O)O; X1 = O=C1CCC(N2C(=O)c3cccc(*)c3C2=O)C(=O)N1; Dil = CC[C@H](C)[C@H](NC)[C@@H](CC(=O)O)OC; X2 = C[C@@H](N*)[C@@H](O)c1ccccc1; NMeV = CN[C@H](C(=O)O)C(C)C; 12Ado = NCCCCCCCCCCCC(=O)O

What was measured:
CRBN = target: T1, CRBN (Homo sapiens, UniProt Q96SW2); assay: Competitive displacement assay for cellular CRBN engagement (rescue of dBET6-mediated BRD4BD2-eGFP degradation, mCherry reporter cells); format: cell-based
T1 construct: Quantitative assessment of intracellular CRBN engagement; endogenous in cells; host or cells: Flp293T-based BRD4BD2-GFP mCherry reporter cell line
Protocol: (§1) The human telomerase reverse transcriptase immortalized retinal pigment epithelium 1 (hTert-RPE1) cell line used in this study was grown at 37 °C with 5% CO2 in a humidified incubator. Cells were grown in Dulbecco’s modified medium (nutrient mixture F12, DMEM/F12) supplemented with 10% fetal bovine serum, and 1% (v:v) penicillin/streptomycin (pen/strep). The Flp293T-based BRD4BD2-GFP mCherry reporter cell line was grown in DMEM supplemented with 10% FBS. The synthesized small molecules and the parental microtubule poisons were dissolved in DMSO; 0.01% DMSO was used as vehicle control.
Supplementary Figure S3. MMAE-CRBN compounds engage CRBN in cells. Quantitative assess-ment of intracellular CRBN engagement using a BRD4BRD2-eGFP-mCherry reporter assay. CRBN engagement was assessed by monitoring rescue of dBET6-mediated degradation of BRD4BRD2-eGFP.
Cells stably expressing BRD4BRD2-eGFP and mCherry were treated with 100 nM of dBET6, a specific degrader of BRD4BRD2, and increasing concentrations of the candidate tubulin degraders. The eGFP and mCherry signals were quantified by laser scanning cytometry and the concentration of compound that rescued 50% of BRD4BRD2-eGFP fluorescence (EC50) was determined by nonlinear regression. Data from n=2 biological replicates. Error bars represent standard deviation of the mean. CPD – compound with […]
(also on this page, place not known: BRD4 BRD2-eGFP-mCherry (BJG-02-095)1 100Relative abundance 100Relative abundance 100Relative abundance) […]
Supplementary Figure S6. CA4-CRBN compounds engage CRBN in cells. Quantitative assessment of intracellular CRBN engagement using a BRD4BRD2-eGFP-mCherry reporter assay. CRBN engage-ment was assessed by monitoring rescue of dBET6-mediated degradation of BRD4BRD2-eGFP. Cells stably expressing BRD4BRD2-eGFP and mCherry were treated with 100 nM of dBET6, a specific degrad-er of BRD4BRD2, and increasing concentrations of the candidate tubulin degraders. The eGFP and […]
(also on this page, place not known: BRD4 BRD2-eGFP. (BJG-02-158)10 Relative abundance 100Relativeabundance) […]
3. Competitive displacement assay for cellular CRBN engagement
Cells stably expressing the BRD4BD2-GFP with mCherry reporter were seeded at 30-50% confluency in 384-well plates with 50 µL FluoroBrite DMEM media (Thermo Fisher Scientific A18967) containing 10% FBS per well a day before compound treatment. Compounds and 100 nM dBET6 were dispensed using a D300e Digital Dispenser (HP), normalized to 0.5% DMSO, and incubated with cells for 5 hours. The assay plate was imaged immediately using an Acumen High Content Imager (TTP Labtech) with 488 nm and 561 nm lasers in 2 µm x 1 µm grid per well format. The resulting images were analyzed using CellProfiler.
A series of image analysis steps (‘image analysis pipeline’) was constructed. First, the red and green channels were aligned and cropped to target the middle of each well (to avoid analysis of heavily clumped cells at the edges), and a background illumination function was calculated for both red and green channels of each well individually and subtracted to correct for illumination variations across the 384-well plate from various sources of error. An additional step was then applied to the green channel to suppress the analysis of large auto fluorescent artifacts and enhance the analysis of cell specific fluorescence by way of selecting for objects under a given size, 30 A.U., and with a given shape, speckles. mCherry-positive cells were then identified in the red channel filtering for objects between 8-60 pixels in diameter and using intensity to distinguish between clumped objects. The green channel was then segmented into GFP positive and negative areas and objects were labeled as GFP positive if at least 40% of it overlapped with a GFP positive area. The fraction of GFP-positive cells/mCherry-positive cells in each well was then calculated, and the green and red images were rescaled for visualization. The values for the concentrations that lead to a 50% […]

[1] = tested on: α-tubulin (TUBA) and β-tubulin (TUBB) in hTert-RPE1 cells; assay: Western blot of tubulin protein levels (tubulin degradation) in whole-cell extracts; format: cell-based, human; conditions: for degradation of tubulin (TUBA and TUBB protein levels, Western blot): normalized to ACTB and DMSO; for tubulin degradation in time-course experiment: five hours, data not shown
Protocol: as §1
Whole-cell extracts for immunoblot analysis were prepared by cell lysis in 2× SDS sample buffer composed of 50 mM Tris-HCl pH 6.8, 2% SDS, 10% glycerol, 143 mM β-mercaptoethanol, 12.5 mM EDTA, and 0.02% bromophenol blue in water. Samples were denatured at 100 °C for 10 min and then subjected to SDS-PAGE gel electrophoresis on 1.5 mm NuPAGE Novex 4–12% Bis-Tris Protein Gels (Thermo Fisher Scientific, Waltham, MA, USA), using the Mini Trans-Blot Cell system (BioRad, Hercules, CA, USA).
(§2) The Precision Plus Protein Dual Color Standard ladder was used for all immunoblots (BioRad, USA). Primary antibodies were diluted: 1:5000 beta-actin (Cell Signaling Technologies, Danvers, MA, USA, #4970), 1:15000 GAPDH (Cell Signaling Technologies, #2118), 1:10000 alpha-tubulin (DM1alpha, Millipore, Burlington, MA, USA, #05-829), and 1:5000 beta-tubulin (Cell Signaling Technologies, # 2128). Secondary antibodies were diluted: 1:15000 goat anti-mouse DyLight 680 conjugated (Thermo Fisher Scientific, #35518), 1:15000 goat anti-rabbit DyLight 800 conjugated (Thermo Fisher Scientific, #35571). The Odyssey Infra-Red Imaging System (LI-COR, Lincoln, NE, USA) equipped with the Image Studio software was used to image and analyze immunoblots. Data plotting and statistical analysis were carried out in Microsoft Excel (Redmond, WA, USA) and R (Vienna, Austria).
As positive controls, we prepared two of the literature molecules, T007-1 and a related T138067 (Figure 2A). We modified the originally reported synthesis of T007-1, instead using 2-chloro-5-nitrobenzoyl chloride, as the reported dicyclohexyl carbodiimide (DCC) coupling with 2-chloro-5-nitrobenzoic acid led to inseparable mixtures of mono- and diacylation (See Supplementary Material for full details). We treated human retinal pigment epithelium 1 (hTert-RPE1) cells, a widely used cell model, with T007-1 and T138067 degraders at a range of concentrations from 5 nM to 10 μM. Prolonged compound treatment was expected to cause activation of the spindle assembly checkpoint and an arrest in the mitotic stage of the cell cycle, which could have an effect on tubulin levels independently of tubulin degradation. To exclude this possibility, we used contact-inhibited quiescent cells (hTert-RPE1 cells stop proliferating at high growth density). In addition, to minimize the probability that some cells escape the cell cycle arrest and continue to proliferate, we opted for a short 5 h treatment of cells with the compounds, which was previously reported to be sufficient to degrade tubulin [35]. […] Therefore, as previously reported, this series of compounds led to degradation of tubulin and a global decrease of both soluble and polymerized tubulin levels.

[2] = tested on: microtubule cytoskeleton in hTert-RPE1 cells; assay: Biochemical partitioning of tubulin into soluble (S) and polymerized (P) fractions; format: cell-based, human; conditions: 1 μM, 5 h
Protocol: as §1
For tubulin partitioning into soluble and polymerized fractions, cells were grown in 12-well dishes at 70–80% confluence. Cells were gently washed with PBS pre-warmed to 37 °C. Soluble tubulin was extracted by incubating cells in 300 µL of tubulin extraction buffer containing 60 mM PIPES (pH 6.8), 25 mM HEPES (pH 7.2), 10 mM EGTA (pH 7–8), 2 mM MgCl2, 0.5% TritonX-100, 10 µM Paclitaxel (Sigma Aldrich, St. Louis, MO USA), and a protease inhibitor tablet (Roche, Branchburg, NJ, USA) for 2 min at room temperature. The extraction buffer with soluble protein was collected and mixed with 100 µL 4× SDS sample buffer. The remaining material containing polymerized tubulin was then collected by adding 400 µL 1× SDS sample buffer and scraping the dish. All samples were denatured at 100 °C for 10 min. Equal aliquots of samples were further concentrated two-fold by evaporation at 100 °C for 3–5 min immediately prior to SDS-PAGE gel electrophoresis.
as §2

[3] = IC50, intracellular CRBN engagement (rescue of 50% of BRD4BRD2-eGFP fluorescence), Supplementary Figures S3 and S6, 100 nM dBET6, n=2 biological replicates
[4] = hTert-RPE1 cells, 5 nM to 10 μM, 5 h

| Structure (SMILES) | cell permeability as judged by the cellular CRBN engagement assay (CRBN) | IC50 (CRBN; [3]) | degradation of tubulin (TUBA and TUBB protein levels, Western blot) [1, 4] | microtubule destabilization (soluble S vs polymerized P fraction of tubulin) [2] | further results |
| --- | --- | --- | --- | --- | --- |
| CC[C@H](C)[C@@H]([C@@H](CC(=O)N1CCC[C@H]1[C@H](OC)[C@@H](C)C(=O)N[C@H](C)[C@@H](O)c1ccccc1)OC)N(C)C(=O)[C@@H](NC(=O)[C@H](C(C)C)N(C)CCOCCOCCOCCOCCNc1cccc2c1C(=O)N(C1CCC(=O)NC1=O)C2=O)C(C)C (stereo partly shown) [Compound 1] | cell-permeable | 342 nM | no degradation | microtubule destabilization | IC50 (CRBN; IC50, cellular CRBN engagement, 100 nM dBET6, 5 hours): 342 nM |
| CC[C@H](C)[C@@H]([C@@H](CC(=O)N1CCC[C@H]1[C@H](OC)[C@@H](C)C(=O)N[C@H](C)[C@@H](O)c1ccccc1)OC)N(C)C(=O)[C@@H](NC(=O)[C@H](C(C)C)N(C)C(=O)CCCCCCCCCCCNc1cccc2c1C(=O)N(C1CCC(=O)NC1=O)C2=O)C(C)C (stereo partly shown) [Compound 3] ({X1-12Ado}-[NMeV]V[Dil][Dolaproine]-X2) | – | – | no degradation | microtubule destabilization | CRBN engagement / CRBN binding in cells (in words) (CRBN; 100 nM dBET6, 5 hours): very weak CRBN engagement; IC50 (CRBN; 100 nM dBET6, 5 hours, read-out: IC50, cellular CRBN engagement): ~10000 nM |
| CC[C@H](C)[C@@H]([C@@H](CC(=O)N1CCC[C@H]1[C@H](OC)[C@@H](C)C(=O)N[C@H](C)[C@@H](O)c1ccccc1)OC)N(C)C(=O)[C@@H](NC(=O)[C@H](C(C)C)N(C)CCOCCOCCOCCNc1cccc2c1C(=O)N(C1CCC(=O)NC1=O)C2=O)C(C)C (stereo partly shown) [Compound 5] | – | 467 nM | – | – | – |
| CC[C@H](C)[C@@H]([C@@H](CC(=O)N1CCC[C@H]1[C@H](OC)[C@@H](C)C(=O)N[C@H](C)[C@@H](O)c1ccccc1)OC)N(C)C(=O)[C@@H](NC(=O)[C@H](C(C)C)N(C)CCOCCOCCOCCOCCOCCNc1cccc2c1C(=O)N(C1CCC(=O)NC1=O)C2=O)C(C)C (stereo partly shown) [Compound 6] | – | 440 nM | – | – | – |
| COc1ccc(/C=C\c2cc(OC)c(OC)c(OC)c2)cc1OCCOCCOCCOCCNc1cccc2c1C(=O)N(C1CCC(=O)NC1=O)C2=O (stereo not shown) [Compound 10] | cell permeable | 1480 nM | – | – | – |
| COc1ccc(/C=C\c2cc(OC)c(OC)c(OC)c2)cc1OCCOCCOCCOCCOCCNc1cccc2c1C(=O)N(C1CCC(=O)NC1=O)C2=O (stereo not shown) [Compound 11] | cell permeable | 572 nM | – | – | – |
| COc1ccc(/C=C\c2cc(OC)c(OC)c(OC)c2)cc1OCCOCCOCCOCCOCCOCCNc1cccc2c1C(=O)N(C1CCC(=O)NC1=O)C2=O (stereo not shown) [Compound 12] | cell permeable | 655 nM | – | – | – |
| COc1ccc(/C=C\c2cc(OC)c(OC)c(OC)c2)cc1NCCOCCOCCOCCOCCNc1cccc2c1C(=O)N(C1CCC(=O)NC1=O)C2=O (stereo not shown) [Compound 13] | – | – | unsuccessful in degrading tubulin | no microtubule-destabilizing activity | CRBN engagement / CRBN binding in cells (in words) (CRBN; 100 nM dBET6, 5 hours): efficient binding to CRBN; IC50 (CRBN; Supplementary Figures S3 and S6, 100 nM dBET6, n=2 biological replicates, read-out: IC50, intracellular CRBN engagement (rescue of 50% of BRD4BRD2-eGFP fluorescence)): 3720 nM |
| O=C(Nc1ccnc(NCc2cccc(Oc3ccccc3)c2)c1)c1cc([N+](=O)[O-])ccc1Cl [Compound T007-1] | – | – | decrease in tubulin levels | decreased levels of both soluble (S) and polymerized (P) fractions of tubulin; also recorded: both the S and the P fraction of tubulin decrease | tubulin degradation in time-course experiment [1]: efficiently degrade tubulin; potency in decreasing tubulin levels, T007-1 compared with T138067 [1, 4]: significantly more potent |
| COc1ccc(NS(=O)(=O)c2c(F)c(F)c(F)c(F)c2F)cc1F [Compound T138067] | – | – | decrease in tubulin levels | both the S and the P fraction of tubulin decrease | tubulin degradation in time-course experiment [1]: efficiently degrade tubulin |
